From ChEMBL document CHEMBL1201862, “PubChem BioAssay data set” (2004)
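Results reflect a 48-hour exposure of cells in 96-well plates to compound at five concentrations. GI50 marks 50% less growth.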 The source made the active and inactive calls. Cut-off read from the data, not from the text of the source: active = GI50 up to about 1.1 µM and inactive = higher.

Experiments:
Experiment in all cases: inhibition of tumour cell growth, NCI panel, 48 h
DMS-273 = tested on: DMS-273
LXFL 529 = tested on: LXFL 529
KM-20L2 = tested on: KM-20L2
DLD-1 = tested on: DLD-1
DMS-114 = tested on: DMS-114
HOP-18 = tested on: HOP-18
XF498 = tested on: XF498
BT-549 = tested on: BT-549

| Compound | GI50 (DMS-273) | GI50 (LXFL 529) | GI50 (KM-20L2) | GI50 (DLD-1) | GI50 (DMS-114) | GI50 (HOP-18) | GI50 (XF498) | GI50 (BT-549) |
| --- | --- | --- | --- | --- | --- | --- | --- | --- |
| C=C(C)C1C/C=C(/C)CCCC2(CCC3=C(CC(C(=C)C)C/C=C(/C)CCC3)O2)C(=O)C1 (stereo not drawn) | > 100 µM (inactive) | > 100 µM (inactive) | > 100 µM (inactive) | > 100 µM (inactive) | > 100 µM (inactive) | > 100 µM (inactive) | > 100 µM (inactive) |  |
| COc1cc(CCC(=O)NS(=O)(=O)c2ccccc2)cc(OC)c1OC | > 100 µM (inactive) | > 100 µM (inactive) | > 100 µM (inactive) | > 100 µM (inactive) | > 100 µM (inactive) | 72.6 µM (inactive) | > 100 µM (inactive) |  |
| CC(=O)NNc1nc(C)c(C(/C=C/c2ccc(/C=C/C(=N\NC(=O)c3ccncc3)c3sc(NNC(C)=O)nc3C)cc2)=N/NC(=O)c2ccncc2)s1 |  | > 100 µM (inactive) | > 100 µM (inactive) | > 100 µM (inactive) | > 100 µM (inactive) |  |  |  |
| O=C1CC(=O)N(CCc2ccccc2)S(=O)(=O)N1CCc1ccccc1 | 22.5 µM (inactive) | 19.8 µM (inactive) |  | 43.5 µM (inactive) | 21.4 µM (inactive) | 65.2 µM (inactive) |  |  |
| O=C1CNNC(CSc2nc3ccc(I)cc3c(=O)n2Cc2ccccc2)=N1 |  |  |  |  |  |  |  | 27.5 µM (inactive) |
| Cc1ccc(S(=O)(=O)N/N=C(\c2nc3ccc([N+](=O)[O-])cc3[nH]c2=O)C(O)c2ccc([N+](=O)[O-])cc2)cc1 (stereo not drawn) | 54 µM (inactive) | 46 µM (inactive) | 46.2 µM (inactive) | 57.1 µM (inactive) | 32 µM (inactive) |  | > 100 µM (inactive) |  |
| c1ccc2c(c1)CCc1c-2n(CCN2CCCCC2)c2ccccc12 |  |  |  |  |  |  |  | 17.9 µM (inactive) |
| C=C1C(=O)OC2CC3(C)CCCC(C)C3=CC12 (stereo not drawn) |  |  |  |  |  |  |  | 4.65 µM (inactive) |
| CCOC(=O)C(Oc1ccc(OC)c2c1C(=O)CCC2)c1ccccc1 (stereo not drawn) | 98.9 µM (inactive) | > 100 µM (inactive) | > 100 µM (inactive) | > 100 µM (inactive) | 84.7 µM (inactive) |  | > 100 µM (inactive) |  |
| CCOC(=O)CCC(NC(=O)c1ccc(CNc2nc3cc(N)cc(N)c3nc2-c2ccccc2)cc1)C(=O)OCC (stereo not drawn) |  |  |  |  |  |  |  | > 100 µM (inactive) |
| NNC(=O)/C(=C/c1ccc(Cl)cc1Cl)NC(=O)c1ccccc1 | > 100 µM (inactive) | > 100 µM (inactive) |  | > 100 µM (inactive) | > 100 µM (inactive) | > 100 µM (inactive) | > 100 µM (inactive) |  |
| FC(F)(F)c1cccc(-c2nc3nc(Cl)c(Cl)nc3[nH]2)c1 |  |  |  |  |  |  |  | 3.18 µM (inactive) |
| CS(=O)(=O)OCCN1CCN(C(=O)c2cccc3c(Nc4ccc(S(=O)(=O)N=C(N)N)cc4)c4ccccc4nc23)CC1 | > 100 µM (inactive) |  | > 100 µM (inactive) | > 100 µM (inactive) | > 100 µM (inactive) |  | > 100 µM (inactive) |  |
| Cc1ccc(S(=O)(=O)[N-]C2C(=O)c3ccccc3C(=O)C2[n+]2cccc(C(N)=O)c2)cc1 (stereo not drawn) |  |  |  |  |  |  |  | > 100 µM (inactive) |
| COc1ccc(Oc2nc3ccc(C(F)(F)F)cc3nc2-c2ccccc2)cc1 |  |  |  |  |  |  |  | 0.361 µM (active) |
| N#C/C(=C/NC(=S)Nc1ccc(S(N)(=O)=O)cc1)C(N)=O |  |  |  |  |  |  |  | > 100 µM (inactive) |
| CCn1c(-c2cc(OC)cc(OC)c2)nc2c1C(=O)c1ccccc1C2=O |  |  |  |  |  |  |  | > 100 µM (inactive) |
| C=C(C)C1CC=C(C)C(O)([C@@]2(O)C[C@H](C(=C)C)CC=C2C)C1 (stereo partly drawn) | 16.2 µM (inactive) | 26.6 µM (inactive) |  | 30.3 µM (inactive) | 37.3 µM (inactive) |  | 14 µM (inactive) |  |
| C/C(CC(=O)Nc1cccc([N+](=O)[O-])c1)=N/NC(N)=S |  | > 100 µM (inactive) | > 100 µM (inactive) | > 100 µM (inactive) | > 100 µM (inactive) |  |  |  |
| COc1ccc(C(OCC2OC3(COC(c4ccccc4)(c4ccc(OC)cc4)c4ccc(OC)cc4)C(Oc4nc(=O)ccn43)C2O)(c2ccccc2)c2ccc(OC)cc2)cc1 (stereo not drawn) |  |  |  |  |  |  |  | > 100 µM (inactive) |
| COC(=O)C(Cc1ccccc1)NP(=O)(O)OCC1OC(n2ccc(N)nc2=O)C(O)C1O (stereo not drawn) |  |  |  |  |  |  |  | > 100 µM (inactive) |
| O=[N+]([O-])c1ccc(C2=NOC(c3ccc(Cl)cc3)N2C23CC4CC(CC(C4)C2)C3)cc1 (stereo not drawn) |  |  |  |  |  |  |  | > 100 µM (inactive) |
| COc1cc([C@@H]2c3cc4c(cc3[C@@H](Nc3ccc(Cl)cc3C(=O)c3ccccc3)[C@H]3COC(=O)[C@H]23)OCO4)cc(OC)c1OC |  |  |  |  |  |  |  | 0.457 µM (active) |
| S=C1N=C2C(=N1)n1c3c(c4ccccc41)CCCC23 (stereo not drawn) |  |  |  |  |  |  |  | 59.2 µM (inactive) |
| COC1=CC(=O)c2ccc(C(C)C)cc2C1(C)C1=NC(C)(C)CO1 (stereo not drawn) | > 100 µM (inactive) | > 100 µM (inactive) | > 100 µM (inactive) | > 100 µM (inactive) | > 100 µM (inactive) | > 100 µM (inactive) | > 100 µM (inactive) |  |
| CCN(CC)CCNC(=O)c1cc2cc(NC(=O)c3cc4cc([N+](=O)[O-])ccc4[nH]3)ccc2[nH]1 |  |  |  |  |  |  |  | > 60.8 µM (inactive) |
| Cc1cn(C2CC(n3cc(Cn4cc(F)c(=O)[nH]c4=O)nn3)C(CO)O2)c(=O)[nH]c1=O (stereo not drawn) |  |  |  |  |  |  |  | > 100 µM (inactive) |
